The source of these data is ChEMBL document CHEMBL1131980, “New class of biphenylene dibenzazocinones as potent ligands for the human EP1 prostanoid receptor” (Bioorg Med Chem Lett, 1999).

Assay [1] addresses Prostaglandin E2 receptor EP4 subtype (Homo sapiens, UniProt P35408). The assay can be described thus: Affinity at human EP4 receptor.
For assay [2], the target named is T1, Prostaglandin E2 receptor EP1 subtype (Homo sapiens, UniProt P34995).
T1 sequence (P34995 whole entry): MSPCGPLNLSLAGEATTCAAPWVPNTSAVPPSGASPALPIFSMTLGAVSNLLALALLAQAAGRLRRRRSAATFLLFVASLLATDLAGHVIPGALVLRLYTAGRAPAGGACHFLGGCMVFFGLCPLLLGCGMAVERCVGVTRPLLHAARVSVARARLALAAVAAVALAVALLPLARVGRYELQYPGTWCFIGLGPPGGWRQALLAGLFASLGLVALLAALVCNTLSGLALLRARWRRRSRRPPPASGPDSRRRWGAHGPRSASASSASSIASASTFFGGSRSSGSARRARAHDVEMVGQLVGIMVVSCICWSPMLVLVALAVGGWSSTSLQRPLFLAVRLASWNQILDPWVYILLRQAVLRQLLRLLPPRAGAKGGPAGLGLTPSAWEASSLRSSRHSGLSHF
The assay can be described thus: Affinity at human EP1 receptor.

In assay [3] the target is Prostaglandin E2 receptor EP2 subtype (Homo sapiens, UniProt P43116). As to the kind of experiment: Affinity at human EP2 receptor.
The target of assay [4] is T2, Prostaglandin E2 receptor EP3 subtype (Homo sapiens, UniProt P43115).
T2 sequence (P43115 whole entry): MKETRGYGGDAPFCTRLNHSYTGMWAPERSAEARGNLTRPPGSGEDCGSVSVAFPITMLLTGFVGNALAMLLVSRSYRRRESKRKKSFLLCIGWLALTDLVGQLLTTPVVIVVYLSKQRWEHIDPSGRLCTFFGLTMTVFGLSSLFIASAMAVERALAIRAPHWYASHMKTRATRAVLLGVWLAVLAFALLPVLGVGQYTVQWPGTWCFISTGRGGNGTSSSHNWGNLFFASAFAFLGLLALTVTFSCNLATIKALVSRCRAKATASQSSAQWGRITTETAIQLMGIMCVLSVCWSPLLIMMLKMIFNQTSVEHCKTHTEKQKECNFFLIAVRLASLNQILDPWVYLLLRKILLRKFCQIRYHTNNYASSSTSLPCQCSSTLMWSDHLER
The assay can be described thus: Affinity at human EP3 receptor.

Assay [5] deals with T3, Prostaglandin D2 receptor (Homo sapiens, UniProt Q13258).
T3 sequence (Q13258 whole entry): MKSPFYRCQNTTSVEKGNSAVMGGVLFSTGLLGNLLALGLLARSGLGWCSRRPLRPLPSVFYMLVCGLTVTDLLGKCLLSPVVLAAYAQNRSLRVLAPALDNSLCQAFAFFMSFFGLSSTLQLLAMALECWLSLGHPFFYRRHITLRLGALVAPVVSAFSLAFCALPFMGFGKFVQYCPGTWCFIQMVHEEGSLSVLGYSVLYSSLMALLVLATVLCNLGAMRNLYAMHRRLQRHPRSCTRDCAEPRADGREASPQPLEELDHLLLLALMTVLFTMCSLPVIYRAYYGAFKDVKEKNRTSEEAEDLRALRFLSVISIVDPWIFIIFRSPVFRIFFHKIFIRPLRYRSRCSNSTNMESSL
The assay can be described thus: Compound was evaluated for its secondary binding affinity to human DP receptors by using Aequorin luminescence-based functional calcium assay.

The target of the next assay is T4, Thromboxane A2 receptor (Homo sapiens, UniProt P21731).
T4 sequence (P21731 whole entry): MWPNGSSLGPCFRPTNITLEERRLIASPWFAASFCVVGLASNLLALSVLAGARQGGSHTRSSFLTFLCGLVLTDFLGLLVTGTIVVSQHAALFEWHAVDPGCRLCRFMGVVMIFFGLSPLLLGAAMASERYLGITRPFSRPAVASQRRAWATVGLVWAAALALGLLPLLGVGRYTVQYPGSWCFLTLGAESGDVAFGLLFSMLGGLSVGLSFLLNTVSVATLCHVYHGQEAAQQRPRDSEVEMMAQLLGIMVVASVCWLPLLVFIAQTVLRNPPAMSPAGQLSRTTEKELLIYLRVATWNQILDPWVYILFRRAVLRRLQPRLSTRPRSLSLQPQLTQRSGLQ
The assay can be described thus: Compound was evaluated for its secondary binding affinity to human TP receptors by using Aequorin luminescence-based functional calcium assay.

A further assay addresses Prostacyclin receptor (Homo sapiens, UniProt P43119). The assay can be described thus: Compound was evaluated for its secondary binding affinity to human IP receptors by using Aequorin luminescence-based functional calcium assay.
In assay [6] the target is Prostaglandin F2-alpha receptor (Homo sapiens, UniProt P43088). As to the kind of experiment: Compound was evaluated for its secondary binding affinity to human FP receptors by using Aequorin luminescence-based functional calcium assay.
Assay [7] can be described thus: Compound was evaluated for ratio of Ki's of EP3 and EP1.

A value given as a limit tells only on which side of the number the result lay.

Chain of Prostaglandin E2 receptor EP4 subtype (P35408 whole entry): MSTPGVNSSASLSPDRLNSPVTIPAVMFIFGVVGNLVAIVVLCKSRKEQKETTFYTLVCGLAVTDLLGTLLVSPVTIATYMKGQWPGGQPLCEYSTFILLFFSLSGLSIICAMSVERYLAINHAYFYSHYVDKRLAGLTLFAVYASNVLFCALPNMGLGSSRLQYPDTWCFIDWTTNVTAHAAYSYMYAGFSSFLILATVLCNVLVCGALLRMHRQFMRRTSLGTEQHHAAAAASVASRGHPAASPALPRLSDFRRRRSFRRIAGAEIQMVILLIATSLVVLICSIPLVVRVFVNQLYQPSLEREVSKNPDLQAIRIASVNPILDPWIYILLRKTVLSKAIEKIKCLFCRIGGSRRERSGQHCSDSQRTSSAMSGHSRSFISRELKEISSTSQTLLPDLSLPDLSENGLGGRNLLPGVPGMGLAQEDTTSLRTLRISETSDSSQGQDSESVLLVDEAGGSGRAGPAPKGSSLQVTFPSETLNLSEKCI
Chain of Prostaglandin E2 receptor EP2 subtype (P43116 whole entry): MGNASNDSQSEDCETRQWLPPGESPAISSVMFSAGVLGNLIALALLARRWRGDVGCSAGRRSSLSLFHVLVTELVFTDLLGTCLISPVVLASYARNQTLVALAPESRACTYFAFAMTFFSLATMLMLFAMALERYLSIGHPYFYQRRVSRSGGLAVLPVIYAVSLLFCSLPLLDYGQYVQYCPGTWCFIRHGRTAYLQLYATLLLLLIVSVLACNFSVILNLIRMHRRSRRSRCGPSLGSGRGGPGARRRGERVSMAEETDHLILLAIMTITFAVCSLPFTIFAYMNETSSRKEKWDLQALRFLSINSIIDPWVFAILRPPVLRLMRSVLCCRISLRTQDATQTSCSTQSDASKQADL
Chain of Prostacyclin receptor (P43119 whole entry): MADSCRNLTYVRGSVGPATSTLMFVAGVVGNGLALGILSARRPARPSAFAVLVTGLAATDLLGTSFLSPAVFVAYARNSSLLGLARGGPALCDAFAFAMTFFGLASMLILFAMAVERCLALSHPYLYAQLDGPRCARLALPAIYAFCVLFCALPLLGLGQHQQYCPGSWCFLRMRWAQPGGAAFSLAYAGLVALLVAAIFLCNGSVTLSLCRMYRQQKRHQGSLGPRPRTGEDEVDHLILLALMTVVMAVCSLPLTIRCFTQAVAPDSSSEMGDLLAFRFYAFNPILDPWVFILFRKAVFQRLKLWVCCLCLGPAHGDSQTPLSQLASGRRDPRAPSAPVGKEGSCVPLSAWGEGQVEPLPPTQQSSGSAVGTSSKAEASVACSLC
Chain of Prostaglandin F2-alpha receptor (P43088 whole entry): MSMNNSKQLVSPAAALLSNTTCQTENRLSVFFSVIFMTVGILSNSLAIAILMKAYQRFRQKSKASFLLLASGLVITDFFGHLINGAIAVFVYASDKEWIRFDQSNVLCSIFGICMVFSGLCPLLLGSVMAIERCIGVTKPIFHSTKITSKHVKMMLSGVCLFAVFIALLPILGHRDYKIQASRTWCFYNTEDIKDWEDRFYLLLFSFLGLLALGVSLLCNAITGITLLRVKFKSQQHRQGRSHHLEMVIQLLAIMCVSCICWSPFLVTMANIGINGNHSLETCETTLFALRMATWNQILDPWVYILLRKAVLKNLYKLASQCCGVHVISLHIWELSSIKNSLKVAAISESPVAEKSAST

Broadly, the Ki is the equilibrium dissociation constant of an inhibitor or competing ligand from its target. On to `O=C1c2ccccc2CCc2ccccc2N1Cc1ccc(-c2ccccc2S(=O)(=O)N(Cc2ccccc2)C(=O)NCCc2ccccc2)cc1`, for which the inhibition constant Ki in [1] was > 100 µM; in [2], 51 µM; in [3], > 100 µM; in [4], > 100 µM.
`O=C(Nc1ccccc1)NS(=O)(=O)c1ccccc1-c1ccc(CN2C(=O)c3ccccc3CCc3ccccc32)cc1`: the Ki in assay [1] is 19 µM; in assay [2] it was 21 µM; in assay [3], 16 µM; in assay [4] it was 4.6 µM.
Regarding `CN(CCc1ccccc1)C(=O)NS(=O)(=O)c1ccccc1-c1ccc(CN2C(=O)c3ccccc3CCc3ccccc32)cc1`, the inhibition constant Ki was found to be 1.1 µM in [1]; 2.87 µM in assay [5]; 0.017 µM in assay [2]; 2.1 µM at Thromboxane A2 receptor; 52 µM at Prostacyclin receptor; 23 µM in assay [3]. For the same compound, the values for the inhibition constant Ki in [6] and in assay [4] were 6.2 µM and 5 µM, respectively.
The compound `O=C(NCCc1cccs1)NS(=O)(=O)c1ccccc1-c1ccc(CN2Cc3ccccc3CCc3ccccc32)cc1` came in with a Ki in [2] of 2.8 µM.
As for `O=C(CCc1ccccc1)NS(=O)(=O)c1ccccc1-c1ccc(CN2C(=O)c3ccccc3CCc3ccccc32)cc1`, the Ki in assay [1] is 13 µM; in assay [2], 0.047 µM; in assay [3], > 100 µM; in assay [4] it was 3.6 µM.
On the same counts, the results for `O=C(NS(=O)(=O)c1ccccc1-c1ccc(CN2C(=O)c3ccccc3CCc3ccccc32)cc1)OCc1ccccc1` are 6 µM, 0.15 µM, 11 µM and 2.4 µM.
The corresponding values for `O=C(NCCCc1ccccc1)NS(=O)(=O)c1ccccc1-c1ccc(CN2C(=O)c3ccccc3CCc3ccccc32)cc1` are > 100 µM, 0.4 µM, > 100 µM and > 100 µM.
The corresponding values for `CCCCNC(=O)NS(=O)(=O)c1ccccc1-c1ccc(CN2C(=O)c3ccccc3CCc3ccccc32)cc1` are > 100 µM, 0.22 µM, > 100 µM and 6 µM.
The compound `O=C(NCCc1cccs1)NS(=O)(=O)c1ccccc1-c1ccc(CN2C(=O)c3ccccc3Oc3ccccc32)cc1` yielded a Ki in assay [2] of 10.8 µM.
As to `CO[C@@](C(=O)NS(=O)(=O)c1ccccc1-c1ccc(CN2C(=O)c3ccccc3CCc3ccccc32)cc1)(c1ccccc1)C(F)(F)F`, the inhibitory constant (Ki) in [1] was 3 µM; in [2], 0.05 µM; in assay [3], 13 µM; in assay [4] it was 1.6 µM.
On the same counts, the results for `O=C(NCCc1ccccc1)NS(=O)(=O)c1ccccc1-c1ccc(CN2C(=O)c3ccccc3CCc3ccccc32)cc1` are > 100 µM, 0.12 µM, > 100 µM and 51.2 µM.
On the same counts, the results for `O=C(COc1ccccc1)NS(=O)(=O)c1ccccc1-c1ccc(CN2C(=O)c3ccccc3CCc3ccccc32)cc1` are 7 µM, 0.14 µM, 22 µM and 4.7 µM.
As for `CC(C)(C)NC(=O)NS(=O)(=O)c1ccccc1-c1ccc(CN2C(=O)c3ccccc3CCc3ccccc32)cc1`, the Ki is 4.7 µM in assay [1], 0.77 µM in [2], > 100 µM in [3] and 1.2 µM in [4]. Moreover, in assay [7], the Ratio was 1.7.
As to `CC(C)(C(=O)NS(=O)(=O)c1ccccc1-c1ccc(CN2C(=O)c3ccccc3CCc3ccccc32)cc1)c1ccccc1`, the Ki in assay [1] worked out at 5 µM; in assay [5], 2.4 µM; in [2] it was 0.01 µM; at Thromboxane A2 receptor it was 3 µM; at Prostacyclin receptor it was 21 µM; in [3] it was 23 µM. The results for the Ki in [6] and in assay [4] were 5 µM and 4 µM, respectively.
Regarding `CN(C(=O)NCCc1ccccc1)S(=O)(=O)c1ccccc1-c1ccc(CN2C(=O)c3ccccc3CCc3ccccc32)cc1`, the Ki in [1] was > 100 µM; in [2], 0.36 µM; in assay [3] it was > 100 µM; in assay [4] it was > 100 µM.
Take `O=C(NCCc1cccs1)NS(=O)(=O)c1ccccc1-c1ccc(Cn2c(=O)c3ccccc3c3ccccc32)cc1`: the inhibitory constant (Ki) in assay [2] was found to be 1.2 µM.
Take `C[C@H](NC(=O)NS(=O)(=O)c1ccccc1-c1ccc(CN2C(=O)c3ccccc3CCc3ccccc32)cc1)c1ccccc1`: the Ki in assay [1] is 6.9 µM; in assay [2], 0.14 µM; in assay [3], 21 µM; in [4], 4.7 µM.
Consider `O=C(NCc1ccccc1)NS(=O)(=O)c1ccccc1-c1ccc(CN2C(=O)c3ccccc3CCc3ccccc32)cc1`, for which the inhibition constant (Ki) in assay [1] is > 100 µM; in [2], 0.2 µM; in [3], > 100 µM; in [4], 13 µM.
Consider `O=C(Cc1ccccc1)NS(=O)(=O)c1ccccc1-c1ccc(CN2C(=O)c3ccccc3CCc3ccccc32)cc1`, for which the Ki in assay [1] was > 100 µM; in assay [2], 0.057 µM; in [3] it was 14 µM; in [4], 2.8 µM.
For `CC(C)(Cc1ccccc1)C(=O)NS(=O)(=O)c1ccccc1-c1ccc(CN2C(=O)c3ccccc3CCc3ccccc32)cc1`, the Ki in [1] is 2.4 µM; in [5], 4 µM; in assay [2], 0.018 µM; at Thromboxane A2 receptor, 1.1 µM; on Prostacyclin receptor, 21 µM; in [3], > 100 µM. For the same compound, the inhibition constant (Ki) was 1.3 µM in assay [6] and 16 µM in assay [4].
As for `CO[C@](C(=O)NS(=O)(=O)c1ccccc1-c1ccc(CN2C(=O)c3ccccc3CCc3ccccc32)cc1)(c1ccccc1)C(F)(F)F`, the inhibition constant Ki was found to be 4 µM in assay [1]; 2 µM in [5]; 0.012 µM in [2]; 1.5 µM on Thromboxane A2 receptor; 13 µM at Prostacyclin receptor; 11 µM in [3]. Further, the figures for the inhibitory constant (Ki) in [6] and in [4] were 3.8 µM and 1.3 µM, respectively.
As for `CC(C(=O)NS(=O)(=O)c1ccccc1-c1ccc(CN2C(=O)c3ccccc3CCc3ccccc32)cc1)c1ccccc1` (centres undefined), the Ki in assay [1] was 20 µM; in [5], 2.8 µM; in assay [2], 0.016 µM; on Thromboxane A2 receptor it was 2.8 µM; on Prostacyclin receptor, 28.3 µM; in assay [3] it was > 100 µM. Also, the inhibition constant (Ki) in [6] turned out to be 5.3 µM; in assay [4], 5 µM.
For `O=C(NCCc1cccs1)NS(=O)(=O)c1ccccc1-c1ccc(CN2C(=O)c3ccccc3CCc3ccccc32)cc1`, the Ki is > 100 µM in assay [1], 0.1 µM in assay [2], > 100 µM in assay [3] and 2.2 µM in assay [4].
